SMILES strings stand for the structures. Some results are limits rather than exact numbers.

GST-Bcl-2, sequence (P10415 whole entry): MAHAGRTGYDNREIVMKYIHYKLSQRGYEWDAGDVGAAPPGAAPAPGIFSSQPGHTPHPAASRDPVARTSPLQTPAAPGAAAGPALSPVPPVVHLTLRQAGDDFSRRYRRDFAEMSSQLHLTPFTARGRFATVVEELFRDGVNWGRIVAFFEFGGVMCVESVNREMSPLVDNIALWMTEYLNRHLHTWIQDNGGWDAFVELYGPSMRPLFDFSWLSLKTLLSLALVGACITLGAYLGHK

The target in this assay is GST-Bcl-2 (Homo sapiens (Human), UniProt P10415). The assay is described as follows: Time Resolved-Fluorescence Resonance Energy Transfer (TR-FRET) Bcl-2 binding assay. The note with it: GST-Bcl-2 1 nM, F-Bak peptide probe 100 nM, Tb-anti-GST antibody 1 nM; Ki by Wang's equation. The gist of the method:
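Competition TR-FRET: GST-Bcl-2 with fluorescent Bak peptide probe and Tb-anti-GST antibody, compounds serially diluted from 50 μM (2× start, 10% DMSO).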
Take `CN1CCC(Nc2ccc(S(=O)(=O)NC(=O)c3ccc(N4CCN(CC5=C(c6ccc(Cl)cc6)CC(C)(C)CC5)CC4)cc3Oc3cccc(F)c3)cc2[N+](=O)[O-])CC1` [Example 112, 4-(4-{[2-(4-chlorophenyl)-4,4-dimethylcyclohex-1-en-1-yl]methyl}piperazin-1-yl)-2-(3-fluorophenoxy)-N-({4-[(1-methylpiperidin-4-yl)amino]-3-nitrophenyl}sulfonyl)benzamide]: the Ki was 0.042 nM. Next, `CN1CCC(Nc2ccc(S(=O)(=O)NC(=O)c3ccc(N4CCN(CC5=C(c6ccc(Cl)cc6)CC(C)(C)CC5)CC4)cc3Nc3ccccc3Cl)cc2[N+](=O)[O-])CC1` [Example 230, 2-[(2-chlorophenyl)amino]-4-(4-{[2-(4-chlorophenyl)-4,4-dimethylcyclohex-1-en-1-yl]methyl}piperazin-1-yl)-N-({4-[(1-methylpiperidin-4-yl)amino]-3-nitrophenyl}sulfonyl)benzamide]: 2.83 nM; `CN(C)CCCc1c[nH]c2ccc(Oc3cc(N4CCN(Cc5ccccc5-c5ccc(Cl)cc5)CC4)ccc3C(=O)NS(=O)(=O)c3ccc(NCC4CCOCC4)c([N+](=O)[O-])c3)cc12` [Example 106, 4-(4-((4′-chloro-1,1′-biphenyl-2-yl)methyl)piperazin-1-yl)-2-((3-(3-(dimethylamino)propyl)-1H-indol-5-yl)oxy)-N-((3-nitro-4-((tetrahydro-2H-pyran-4-ylmethyl)amino)phenyl)sulfonyl)benzamide]: 215 nM.

`CC1(C)CCC(CN2CCN(c3ccc(C(=O)NS(=O)(=O)c4ccc(NN5CCOCC5)c([N+](=O)[O-])c4)c(Oc4cc5cc[nH]c5cc4F)c3)CC2)=C(c2ccc(Cl)cc2)C1` [Example 252, 4-(4-{[2-(4-chlorophenyl)-4,4-dimethylcyclohex-1-en-1-yl]methyl}piperazin-1-yl)-2-[(6-fluoro-1H-indol-5-yl)oxy]-N-{[4-(morpholin-4-ylamino)-3-nitrophenyl]sulfonyl}benzamide] showed a Ki of 1.15 nM. Next, `O=C(NS(=O)(=O)c1ccc(NCCCN2CCOCC2)c([N+](=O)[O-])c1)c1ccc(N2CCN(Cc3ccccc3-c3ccc(Cl)cc3)CC2)cc1Oc1cccc(N2CCOCC2)c1` [Example 69, 4-(4-((4′-chloro-1,1′-biphenyl-2-yl)methyl)piperazin-1-yl)-2-(3-morpholin-4-ylphenoxy)-N-((4-((3-morpholin-4-ylpropyl)amino)-3-nitrophenyl)sulfonyl)benzamide]: 8.25 nM; `COCOc1cccc(Oc2cc(N3CCN(CC4=C(c5ccc(Cl)cc5)CC(C)(C)CC4)CC3)ccc2C(=O)NS(=O)(=O)c2ccc(NC3CCN(C)CC3)c([N+](=O)[O-])c2)c1C` [Example 158, 4-(4-{[2-(4-chlorophenyl)-4,4-dimethylcyclohex-1-en-1-yl]methyl}piperazin-1-yl)-2-[3-(methoxymethoxy)-2-methylphenoxy]-N-({4-[(1-methylpiperidin-4-yl)amino]-3-nitrophenyl}sulfonyl)benzamide]: 0.619 nM. Next, `CC(C)(C)OC(=O)N1CCN(c2cccc(Oc3cc(N4CCN(Cc5ccccc5-c5ccc(Cl)cc5)CC4)ccc3C(=O)NS(=O)(=O)c3ccc(NCC4CCOCC4)c([N+](=O)[O-])c3)c2)CC1` [Example 91, tert-butyl 4-(3-(5-(4-((4′-chloro-1,1′-biphenyl-2-yl)methyl)piperazin-1-yl)-2-((((3-nitro-4-((tetrahydro-2H-pyran-4-ylmethyl)amino)phenyl)sulfonyl)amino)carbonyl)phenoxy)phenyl)piperazine-1-carboxylate]: over 1200 nM; `CC1(C)CCC(CN2CCN(c3ccc(C(=O)NS(=O)(=O)c4ccc(N[C@@H]5CCN(Cc6cscn6)C[C@@H]5O)c([N+](=O)[O-])c4)c(Oc4cc5cc[nH]c5cc4F)c3)CC2)=C(c2ccc(Cl)cc2)C1` [Example 249, 4-(4-{[2-(4-chlorophenyl)-4,4-dimethylcyclohex-1-en-1-yl]methyl}piperazin-1-yl)-2-[(6-fluoro-1H-indol-5-yl)oxy]-N-[(4-{[(3S,4R)-3-hydroxy-1-(1,3-thiazol-4-ylmethyl)piperidin-4-yl]amino}-3-nitrophenyl)sulfonyl]benzamide]: 0.168 nM; `CC1(C)CCC(CN2CCN(c3ccc(C(=O)NS(=O)(=O)c4ccc(NCC5CCOCC5)c([N+](=O)[O-])c4)c(Oc4ccc(N)c(Cl)c4)c3)CC2)=C(c2ccc(Cl)cc2)C1` [Example 247, 2-(4-amino-3-chlorophenoxy)-4-(4-{[2-(4-chlorophenyl)-4,4-dimethylcyclohex-1-en-1-yl]methyl}piperazin-1-yl)-N-({3-nitro-4-[(tetrahydro-2H-pyran-4-ylmethyl)amino]phenyl}sulfonyl)benzamide]: 0.039 nM. The same measure for `Cc1cc2cc(Oc3cc(N4CCN(CC5=C(c6ccc(Cl)cc6)CC(C)(C)CC5)CC4)ccc3C(=O)NS(=O)(=O)c3ccc(NCCCN4CCOCC4)c([N+](=O)[O-])c3)ccc2[nH]1` [Example 4, 4-(4-((2-(4-chlorophenyl)-4,4-dimethylcyclohex-1-en-1-yl)methyl)piperazin-1-yl)-2-((2-methyl-1H-indol-5-yl)oxy)-N-((4-((3-morpholin-4-ylpropyl)amino)-3-nitrophenyl)sulfonyl)benzamide]: 2.47 nM; for `CN1CCC(Nc2ccc(S(=O)(=O)NC(=O)c3ccc(N4CCN(CC5=C(c6ccc(Cl)cc6)CC(C)(C)CC5)CC4)cc3Oc3cccc(CO)c3)cc2[N+](=O)[O-])CC1` [Example 167, 4-(4-{[2-(4-chlorophenyl)-4,4-dimethylcyclohex-1-en-1-yl]methyl}piperazin-1-yl)-2-[3-(hydroxymethyl)phenoxy]-N-({4-[(1-methylpiperidin-4-yl)amino]-3-nitrophenyl}sulfonyl)benzamide]: 1.34 nM; for `CN1CCN(Nc2ccc(S(=O)(=O)NC(=O)c3ccc(N4CCN(CC5=C(c6ccc(Cl)cc6)CC(C)(C)CC5)CC4)cc3Oc3cc4cc[nH]c4c(F)c3F)cc2[N+](=O)[O-])CC1` [Example 220, 4-(4-{[2-(4-chlorophenyl)-4,4-dimethylcyclohex-1-en-1-yl]methyl}piperazin-1-yl)-2-[(6,7-difluoro-1H-indol-5-yl)oxy]-N-({4-[(4-methylpiperazin-1-yl)amino]-3-nitrophenyl}sulfonyl)benzamide]: 0.127 nM. Regarding `CCN(CC)C1CCC(Nc2ccc(S(=O)(=O)NC(=O)c3ccc(N4CCN(CC5=C(c6ccc(Cl)cc6)CC(C)(C)CC5)CC4)cc3Oc3cccc(Cl)c3)cc2[N+](=O)[O-])CC1` (stereo not shown) [Example 204, 2-(3-chlorophenoxy)-4-(4-{[2-(4-chlorophenyl)-4,4-dimethylcyclohex-1-en-1-yl]methyl}piperazin-1-yl)-N-[(4-{[4-(diethylamino)cyclohexyl]amino}-3-nitrophenyl)sulfonyl]benzamide], the affinity corresponds to a Ki of 0.075 nM. The same measure for `CC1(C)CCC(CN2CCN(c3ccc(C(=O)NS(=O)(=O)c4ccc(NCC5CCOCC5)c([N+](=O)[O-])c4)c(Oc4cnc(N)c(C5CC5)c4)c3)CC2)=C(c2ccc(Cl)cc2)C1` [Example 366, 2-[(6-amino-5-cyclopropylpyridin-3-yl)oxy]-4-(4-{[2-(4-chlorophenyl)-4,4-dimethylcyclohex-1-en-1-yl]methyl}piperazin-1-yl)-N-({3-nitro-4-[(tetrahydro-2H-pyran-4-ylmethyl)amino]phenyl}sulfonyl)benzamide]: 6.05 nM. Molecule `CC1(C)CCC(CN2CCN(c3ccc(C(=O)NS(=O)(=O)c4ccc(NCC5CCOCC5)c([N+](=O)[O-])c4)c(Oc4ccc(NCC(F)F)nc4)c3)CC2)=C(c2ccc(Cl)cc2)C1` [Example 376, 4-(4-{[2-(4-chlorophenyl)-4,4-dimethylcyclohex-1-en-1-yl]methyl}piperazin-1-yl)-2-({6-[(2,2-difluoroethyl)amino]pyridin-3-yl}oxy)-N-({3-nitro-4-[(tetrahydro-2H-pyran-4-ylmethyl)amino]phenyl}sulfonyl)benzamide] displayed a Ki of 57.7 nM. This Ki lies about 9.5-fold higher than the previous one.

For `O=C(NS(=O)(=O)c1ccc(NCC2CCOCC2)c([N+](=O)[O-])c1)c1ccc(N2CCN(Cc3ccccc3-c3ccc(Cl)cc3)CC2)cc1Oc1ccc2[nH]cc(CCC(=O)N3CCOCC3)c2c1` [Example 73, 4-(4-((4′-chloro-1,1′-biphenyl-2-yl)methyl)piperazin-1-yl)-2-((3-(3-morpholin-4-yl-3-oxopropyl)-1H-indol-5-yl)oxy)-N-((3-nitro-4-((tetrahydro-2H-pyran-4-ylmethyl)amino)phenyl)sulfonyl)benzamide], the Ki was determined as 32.3 nM. Compared with the last molecule, the Ki is about 1.8-fold lower. Next, `CC1(C)CCC(CN2CCN(c3ccc(C(=O)NS(=O)(=O)c4ccc(N[C@@H]5CCN(C(CF)CF)C5)c([N+](=O)[O-])c4)c(Oc4cnc(N)c(Cl)c4)c3)CC2)=C(c2ccc(Cl)cc2)C1` [Example 394, 2-[(6-amino-5-chloropyridin-3-yl)oxy]-4-(4-{[2-(4-chlorophenyl)-4,4-dimethylcyclohex-1-en-1-yl]methyl}piperazin-1-yl)-N-{[4-({(3R)-1-[2-fluoro-1-(fluoromethyl)ethyl]pyrrolidin-3-yl}amino)-3-nitrophenyl]sulfonyl}benzamide]: 0.018 nM; `CC1(C)CCC(CN2CCN(c3ccc(C(=O)NS(=O)(=O)c4cnc(OCC5CCOCC5)c(C#N)c4)c(Oc4cc5cc[nH]c5cc4F)c3)CC2)=C(c2ccc(Cl)cc2)C1` [Example 301, 4-(4-{[2-(4-chlorophenyl)-4,4-dimethylcyclohex-1-en-1-yl]methyl}piperazin-1-yl)-N-{[5-cyano-6-(tetrahydro-2H-pyran-4-ylmethoxy)pyridin-3-yl]sulfonyl}-2-[(6-fluoro-1H-indol-5-yl)oxy]benzamide]: 0.113 nM.

For the molecule `CN1CCC(Nc2ccc(S(=O)(=O)NC(=O)c3ccc(N4CCN(CC5=C(c6ccc(Cl)cc6)CC(C)(C)OC5)CC4)cc3Oc3cccc(Cl)c3)cc2[N+](=O)[O-])CC1` [Example 144, 2-(3-chlorophenoxy)-4-(4-{[4-(4-chlorophenyl)-6,6-dimethyl-5,6-dihydro-2H-pyran-3-yl]methyl}piperazin-1-yl)-N-({4-[(1-methylpiperidin-4-yl)amino]-3-nitrophenyl}sulfonyl)benzamide], the Ki worked out at 0.028 nM.

What is called Ki is the equilibrium dissociation constant of an inhibitor or competing ligand from its target. Read a low Ki as tighter binding.

The values above are taken from US8952157B2, “Apoptosis-inducing agents for the treatment of cancer and immune and autoimmune diseases” (AbbVie Inc., priority 2008, dated 2015).
